Data from patent US20100210506A1, “INTRANASAL ADMINISTRATION OF RAPID ACTING INSULIN” (MDRNA, INC., priority 2005, published 2010).
Entries after “also recorded” stand apart in the source; their conditions may differ.

Legend:
[1] = test system: S. aureus, A. niger, P. auerignosa; test: Antimicrobial Effectiveness Testing, U.S. Pharmacopeial (USP <51>); assay type: cell-based; conditions: USP and EP AET, insulin nasal spray formulations at neutral pH
Experimental: AET Study 1 was conducted to determine the Antimicrobial Effectiveness (AET) of an insulin nasal spray placebo with methylparaben sodium, propylparaben sodium, and propylene glycol. Additionally, AET Study 1 examined the AET of increased EDTA alone. Approximately 120 mL of each formulation was manufactured and tested in duplicate (n=2 analyses per sample).
(§1) The AET methods used were in compliance with the requirements for U.S. Pharmacopeial (USP) and European Pharmacopeial (EP) AET and are described in Tables 34 and 35, respectively. The formulations were also tested for pH (per SOP 403), appearance (visual), and osmolality (per SOP 4000).

[2] = pH, appearance (visual) and osmolality of AET formulations; assay type: physicochemical; conditions: preservative within insulin nasal spray formulation
Experimental: as §1

SMILES	antimicrobial effectiveness as preservative [1]	antimicrobial effectiveness as preservative ([1]; listed as benzyl alcohol)	antimicrobial effectiveness as preservative ([1]; listed as benzakonium chloride)	compatibility with insulin [2]	compatibility with insulin ([2]; listed as benzakonium chloride)
OCc1ccccc1 [Benzyl alcohol]	not effective preservatives at neutral pH; also recorded: ineffective as antimicrobial reagents	not effective preservatives			
CCO [Ethanol]	antimicribal activity similar to that of methylparaben sodium/propylparaben sodium/propylene glycol; also recorded: not an effective preservative (at 1%)				
O=C([O-])c1ccccc1.[Na+] [sodium benzoate]	not effective preservatives at neutral pH				
CCCCCCCCCCCCC[N+](C)(C)Cc1ccccc1 [Benzalkonium chloride]	excellent preservative		best antimicrobial performance	incompatible with insulin	incompatible with insulin (caused precipitation)
Cc1cccc(O)c1 [m-cresol]	not effective preservatives				
